Source: patent US9670223B2, “Compounds with super-aspirin effects” (SOLVOTRIN THERAPEUTICS LTD., priority 2011, dated 2017)
Read-outs that look alike come from different tables or passages of the source.

Assays:
[1] = Plasma pharmacokinetics of aspirin and metabolites after single oral gavage dose; type: in vivo, cynomolgus monkey; details: cynomolgus monkey, plasma, read-out: modeled AUC of Aspirin
Protocol: The objectives of this study are to determine the comparative clinical efficacy as determined by TxB2 suppression with single oral gavage dose administration of Aspirin, ST0702 and ST0702 Micronised to the cynomolgus monkey. Aspirin pharmacokinetics were compared using Area Under the Curve (AUC) calculations.
The objectives of this study are to determine the comparative pharmacokinetics of ST0702 at 9.6 and 4.8 mg/Kg with single oral gavage dose administration to the cynomolgus monkey and to determine dose-response effects.
Although the half life of the Isosorbide 2 salicylate 5 nicotinate metabolite is very short in-vitro, we investigated the serum taken from Cynomologus Monkeys participating in Study 2B above. The comparative pharmacokinetics of Isosorbide 2 salicylate 5 nicotinate from Monkeys receiving a single oral gavage dose of micronized ST0702 at 9.6 and 4.8 mg/Kg were evaluated. The concentrations of the breakdown products of ISANA were quantified using LCMS methods.
Animals are acclimated to the oral gavage procedure for at least 3 days prior to the commencement of dose formulation administration. Deionized water is administered by oral gavage using a disposable catheter attached to a plastic syringe at a dose volume of 5 mL/kg. Animals are treated at approximately the same time on each dosing day. Dose formulations are administered by oral gavage using a disposable catheter attached to a plastic syringe. Following each daily dose, the gavage tube is rinsed with 6 mL of Ultra Pure water into the animal's stomach. Each animal will be dosed with a clean gavage tube on each dosing occasion. The dosing volume is 10 mL/kg. Each actual volume administered will be based on the most recent practical body weight of each animal. The dose formulations will be stirred continuously during dose administration.
Samples are mixed gently and placed on crushed wet ice until centrifugation, which are carried out as soon as practical. The samples are centrifuged for approximately 10 minutes in a refrigerated centrifuge (approximately 4° C.) at 2700 rpm. The resultant plasma are separated, transferred to uniquely labeled clear polypropylene tubes, and frozen immediately over dry ice and transferred to a freezer set to maintain −80° C. The plasma samples are transferred to the bioanalytical laboratory at the Testing Facility.
Plasma samples are analyzed for concentration of Aspirin, Salicylic Acid and Nicotinic Acid using a qualified analytical procedure. Analysis are performed by LC MS/MS under Analytical Procedure. Data collection is performed using Analyst from AB Sciex. […]

[2] = test system: platelet rich plasma (PRP); test: U46619-induced platelet aggregation in PRP; type: cell-based, human
Protocol: Platelet aggregation was measured by light aggregometry. […] Aggregation was initiated by the addition of agonists, and monitored by Aggro-Link software for at least 6 min.

washed platelet samples = test: Collagen-induced platelet aggregation in the TCIPA studies (washed platelets); type: cell-based, human; details: Homo sapiens, Platelet; aspirin 300 μM, n=4
[3] = test system: platelet rich plasma (PRP); details: values marked † From Reference 7, read-out: IC50 (PRP, 95% CI); cited from earlier work
[4] = test system: platelet rich plasma (PRP); test: Collagen-induced platelet aggregation in platelet rich plasma (light aggregometry); type: cell-based; details: Homo sapiens, collagen (5 µg/mL), values without †, read-out: IC50 (PRP, 95% CI)
CaCo2 cells = test: Tumour cell-induced platelet aggregation (TCIPA), static conditions, Caco-2
Protocol: Three human tumor cell lines, 59M ovarian adenocarcinoma, Caco-2 colon adenocarcinoma and HT1080 fibrocarcinoma cells, were obtained from the European Cell Culture Collection. Cell lines were cultured as monolayers in 75 ml culture flasks at 37° C. in a humidified atmosphere with 5% CO2. 59M cells and HT1080 were cultured in Dulbecco's […] (DMEM) supplemented with 10% fetal bovine serum (FBS) and gentamycin (0.05 mg/ml), penicillin (0.06 mg/ml), and streptomycin (0.01 mg/ml). Caco-2 cell line was cultured in Minimum Essential Medium (MEM) supplemented with 20% FBS and the same antibiotics as above. The cells were supplied with fresh medium and subcultured three times each week.
Washed platelet suspensions (2.5×10^11 platelets 1^−1) were prepared from blood an mixed with the anticoagulant sodium citrate (0.315% final concentration).
The interactions between platelets and tumor cells were measured by light aggregometry (Alonso-Escolano et al., 2004; Jurasz et al., 2001b; Radomski et al., 1991). […] TCIPA was initiated by the addition of cancer cells, and monitored by Aggro-Link software for at least 30 min. […]
To study whether or not aspirin prodrugs had any direct effect on tumour cells, nictoinate was preincubated with different cell lines and added to the platelet suspension. TCIPA was monitored for at least 30 min.

| SMILES | AUC ([1]; oral, Phase 2B text, Aspirin 4.2 mg/Kg dose) [ng·h/mL] | AUC ([1]; Phase 2A, Aspirin 4.2 mg/Kg oral) [ng·h/mL] | inhibitory effect on platelet aggregation induced by U46619 [2] | inhibition at 300 µM (washed platelet samples) [%] | IC50 [3] [µM] | IC50 [4] [µM] | effect on TCIPA when tumour cells were preincubated with compound (CaCo2 cells; Caco2 cells preincubated) | inhibition of TCIPA induced by Caco-2 (CaCo2 cells; static, WP, 300 and 500 μM, CaCo2 1.5×10^3/ml) |
| --- | --- | --- | --- | --- | --- | --- | --- | --- |
| CC(=O)Oc1ccccc1C(=O)O [Aspirin] | 923 | 870 | Neither aspirin nor the aspirin prodrugs had any inhibitory effect | 56 ± 7 | 92 | 90 |  |  |
| CC(=O)Oc1ccccc1C(=O)O[C@H]1CO[C@H]2[C@@H]1OC[C@H]2OC(=O)c1cccnc1 [ST0702, isosorbide-2-aspirinate-5-nicotinate] |  |  |  |  |  |  | no effect on TCIPA | consistently inhibited TCIPA |
